Columns and labels:
[1] = test system: UMN apical dendrites of hSOD1^G93A‐UeGFP mice; assay: UMN apical dendrites with vacuoles, hSOD1^G93A‐UeGFP mice; format: in vivo; conditions: for Mean, Fig. 4G (UMN apical dendrites with vacuoles): hSOD1G93A-UeGFP mice; for percentage of UMNs with vacuolated apical dendrites: hSOD1^G93A‐UeGFP mice
Method: (§1) hSOD1^G93A‐UeGFP, prpTDP‐43^A315T‐UeGFP and WT‐UeGFP mice were weighed and the required NU‐9 dose per weight was calculated (20 or 100 mg/kg), which was administered once daily by oral gavage, starting at postnatal day (P)60 and continuing until P120. Animals from the untreated group received the vehicle (NMP and olive oil) only. For oral administration purposes, 20 ga × 38 mm plastic feeding tubes were used (Instech Laboratories, Inc). The gavage tip was inserted into the mouth directly over the tongue and into the pharynx. While observing the swallowing reflex, the tip was safely and smoothly slid into the esophagus. Once the administration was completed, the gavage tip was pulled straight out.
(§2) Mice were deeply anesthetized using ketamine (90 mg/kg) with xylazine (10 mg/kg), and transcardially perfused with 4% PFA in PBS. The brains were removed intact and postfixed (4% PFA, overnight) and stored in PBS with sodium azide (0.01%) at 4°C. Sections were cut in a coronal (50 µm) plane using a vibratome (Leica) and processed for immunocytochemical analyses.
(§3) The antibodies used are as follows: anti‐GFP (1:1000, Invitrogen; or 1:1000, Abcam) and anti‐misfolded SOD1 (B8H10, 1:250, Médimabs). Briefly, sections were treated with blocking solution (PBS, 0.05% BSA, 2% FBS, 1% Triton X‐100, and 0.1% saponin) for 30 min at room temperature and incubated with primary antibody diluted in blocking solution overnight at 4°C. Appropriate secondary fluorescent antibodies (1:500, AlexaFluor‐conjugated, Invitrogen) were added to the blocking solution at room temperature for 2 h in the dark.

[2] = test system: UMN apical dendrites of prpTDP‐43^A315T‐UeGFP mice; assay: UMN apical dendrites with vacuoles, prpTDP‐43^A315T‐UeGFP mice; format: in vivo
Method: as §1, §2, §3

[3] = test system: UMNs in the motor cortex of hSOD1^G93A‐UeGFP mice; assay: UMN quantification in motor cortex, hSOD1^G93A‐UeGFP mice; format: in vivo; conditions: for Mean, Fig. 5E (UMN quantification in motor cortex): hSOD1G93A-UeGFP mice; for average number of UMNs per section in the motor cortex: hSOD1^G93A‐UeGFP mice
Method: as §1
(§4) Since UMNs are genetically labeled with eGFP expression in the motor cortex of WT‐UeGFP, hSOD1^G93A‐UeGFP, and prpTDP‐43^A315T‐UeGFP mice, UMNs were identified based on the GFP expression. Quantitative analyses were performed on three matched rostrocaudal sections spanning the motor cortex. Three images per subject were taken to capture a 4× objective filed that encompass layer 5 of the motor cortex. An inverted epifluorescent Eclipse TE2000‐E microscope (Nikon) with the same exposure time and intensity was used. UMNs were counted only if their soma and apical dendrite were both visualized in the same 50‐µm thick section. Images were analyzed in ImageJ (NIH) using the Find maxima processing command to determine the local maxima within a predetermined region of interest that circumscribes the layer 5 of the motor cortex. A universal noise tolerance, which ignores the local maxima corresponding to background and autofluorescence, was applied to all images.

[4] = test system: LMNs in the lumbar spinal cord of hSOD1^G93A‐UeGFP mice; assay: Lower motor neuron (LMN) quantification in lumbar spinal cord, hSOD1^G93A‐UeGFP mice; format: in vivo; conditions: for Mean, Fig. 8E (LMN quantification in lumbar spinal cord) / Mean, Fig. 8F (LMN quantification in lumbar spinal cord) / Mean, Fig. 8G (LMN quantification in lumbar spinal cord): hSOD1G93A-UeGFP mice; for number of LMNs per section, lumbar spinal cord / number of NeuN^+/ChAT^+ LMNs (vulnerable to degeneration): hSOD1^G93A‐UeGFP mice, P120
Method: as §1
A 5‐mm block of lumbar spinal cord was sectioned in 50‐µm thick sections with a vibratome (Leica), and every other section was used for immunohistochemical analysis. LMNs were identified based on their location in the ventral horn and expression of the molecular marker ChAT. 10× Images were captured using an inverted epifluorescent Eclipse TE2000‐E microscope (Nikon). GFP^+/ChAT^+ and NeuN^+/ChAT^+ LMNs were quantified per section. The average number of LMNs per section is reported per mouse with n = 5 mice per group.

[5] = test system: prpTDP‐43^A315T‐UeGFP mice; assay: Rotarod test, prpTDP‐43^A315T‐UeGFP mice; format: in vivo; conditions: for Rotarod, Predicted (LS) mean: prpTDP-43A315T-UeGFP (NU-9 100 mg/kg/day); for Rotarod, Average: prpTDP-43A315T-UeGFP, NU-9 100 mg/kg/day po
Method: as §1
Behavior data were collected from hSOD1^G93A‐UeGFP and WT‐UeGFP mice (starting at P60 and every 7 days until P116) and from prpTDP‐43^A315T‐UeGFP mice (at P60, P90, and P120) with the following number of mice for each group: WT‐UeGFP vehicle (n = 10), hSOD1^G93A‐UeGFP vehicle (n = 6), WT‐UeGFP 20 mg/kg/day NU‐9 (n = 5), hSOD1^G93A‐UeGFP 20 mg/kg/day NU‐9 (n = 7), WT‐UeGFP 100 mg/kg/day NU‐9 (n = 11), hSOD1^G93A‐UeGFP 100 mg/kg/day NU‐9 (n = 9), prpTDP‐43^A315T‐UeGFP untreated (n ≥ 3), and prpTDP‐43^A315T‐UeGFP 100 mg/kg/day NU‐9 (n = 4) (Table S3).
Mice were placed on a rotating rod that accelerates linearly from 4 to 40 rpm (Rotarod, Ugo Basile), and the average time spent on the rotating rod for three consecutive trials was calculated for each mouse. Mice were allowed to run for a maximum of 5 min with a 5 min rest period between each run, and the latency to fall was recorded for three consecutive trials. The average of the three trials was taken as the data point for each mouse at the age tested, and the performance of different groups are reported as the mean ± SEM.

[6] = test system: UMNs in the motor cortex of prpTDP‐43^A315T‐UeGFP mice; assay: UMN quantification in motor cortex, prpTDP‐43^A315T‐UeGFP mice; format: in vivo
Method: as §1, §4

[7] = test system: cortical neurons; parameters: method as in earlier work; conditions: ref 53 (compound 2), ref 54 (NU‐9); cited from earlier work
[8] = hSOD1G93A-UeGFP vehicle minus NU-9 20 mg/kg/day, Tukey's multiple comparisons test
[9] = hSOD1G93A-UeGFP vehicle minus NU-9 100 mg/kg/day, Tukey's multiple comparisons test
[10] = 20 mg/kg/day oral gavage P60–P120
[11] = 100 mg/kg/day oral gavage P60–P120
[12] = prpTDP43A315T-UeGFP untreated minus NU-9 100 mg/kg/day, Tukey's multiple comparisons test
[13] = prpTDP-43A315T-UeGFP mice, NU-9 100 mg/kg/day
[14] = prpTDP‐43^A315T‐UeGFP mice, 100 mg/kg/day oral gavage P60–P120

C[C@H](Oc1cc(C(F)(F)F)cc(C(F)(F)F)c1)C1CC(=O)CC(=O)C1 [NU‐9]
Mean, Fig. 4G (UMN apical dendrites with vacuoles) ([1]; NU-9 20 mg/kg/day): 43.86
Mean, Fig. 4G (UMN apical dendrites with vacuoles) ([1]; NU-9 100 mg/kg/day): 23.28
Mean Diff., Fig. 4G, GS Vehicle vs. GS NU-9 (20) [1, 8]: 32.38
Mean Diff., Fig. 4G, GS Vehicle vs. GS NU-9 (100) [1, 9]: 52.96
percentage of UMNs with vacuolated apical dendrites [1, 10]: 44% ± 7%
percentage of UMNs with vacuolated apical dendrites [1, 11]: 23% ± 10%
Mean Diff., Fig. 7E, GT Untreated vs. GT NU-9 (100) [2, 12]: 70.28
Mean, Fig. 7E (UMN apical dendrites with vacuoles) [2, 13]: 10.93
percentage of UMNs with vacuolated primary apical dendrites [2, 14]: 11% ± 1%
Mean, Fig. 5E (UMN quantification in motor cortex) ([3]; NU-9 20 mg/kg/day): 21.06
Mean, Fig. 5E (UMN quantification in motor cortex) ([3]; NU-9 100 mg/kg/day): 46.43
Mean Diff., Fig. 5E, GS Vehicle vs. GS NU-9 (20) [3, 8]: -16.12
Mean Diff., Fig. 5E, GS Vehicle vs. GS NU-9 (100) [3, 9]: -41.49
average number of UMNs per section in the motor cortex [3, 10]: 21 ± 5 UMN
average number of UMNs per section in the motor cortex [3, 11]: 46 ± 3 UMN
Mean, Fig. 8E (LMN quantification in lumbar spinal cord) ([4]; NU-9 20 mg/kg/day): 12.11
Mean, Fig. 8F (LMN quantification in lumbar spinal cord) ([4]; NU-9 20 mg/kg/day): 6.506
Mean, Fig. 8G (LMN quantification in lumbar spinal cord) ([4]; NU-9 20 mg/kg/day): 18.62
Mean, Fig. 8E (LMN quantification in lumbar spinal cord) ([4]; NU-9 100 mg/kg/day): 9.708
Mean, Fig. 8F (LMN quantification in lumbar spinal cord) ([4]; NU-9 100 mg/kg/day): 4.426
Mean, Fig. 8G (LMN quantification in lumbar spinal cord) ([4]; NU-9 100 mg/kg/day): 14.13
Mean Diff., Fig. 8E, GS Vehicle vs. GS NU-9 (20) [4, 8]: -1.853
Mean Diff., Fig. 8F, GS Vehicle vs. GS NU-9 (20) [4, 8]: 0.3602
Mean Diff., Fig. 8G, GS Vehicle vs. GS NU-9 (20) [4, 8]: -1.493
Mean Diff., Fig. 8E, GS Vehicle vs. GS NU-9 (100) [4, 9]: 0.5524
Mean Diff., Fig. 8F, GS Vehicle vs. GS NU-9 (100) [4, 9]: 2.44
Mean Diff., Fig. 8G, GS Vehicle vs. GS NU-9 (100) [4, 9]: 2.992
number of LMNs per section, lumbar spinal cord ([4]; 20 mg/kg/day): 18.6 ± 0.4 LMN
number of NeuN^+/ChAT^+ LMNs (vulnerable to degeneration) ([4]; 20 mg/kg/day): 12.1 ± 0.4 LMN
number of LMNs per section, lumbar spinal cord ([4]; 100 mg/kg/day): 14.1 ± 1.3 LMN
number of NeuN^+/ChAT^+ LMNs (vulnerable to degeneration) ([4]; 100 mg/kg/day): 9.7 ± 0.9 LMN
numbers of GFP^+ and ChAT^+ LMN (resistant to degeneration) ([4]; regardless of genotype or treatment): comparable
Rotarod, Predicted (LS) mean ([5]; P60, mixed-effects analysis): 260
Rotarod, Predicted (LS) mean ([5]; P90, mixed-effects analysis): 216
Rotarod, Predicted (LS) mean ([5]; P120, mixed-effects analysis): 165.8
Rotarod, Average ([5]; P60): 267.889
Rotarod, Average ([5]; P90): 232.556
Rotarod, Average ([5]; P120): 178.444
rotarod test, latency to fall ([5]; prpTDP‐43^A315T‐UeGFP mice, 100 mg/kg/day, after 30 days of treatment): 232.6 ± 18.1 s
Mean Diff., Fig. 7H, GT Untreated vs. GT NU-9 (100) [6, 12]: -22.58
Mean, Fig. 7H (UMN quantification in motor cortex) [6, 13]: 59.17
average number of UMNs in the motor cortex [6, 14]: 59 ± 3 UMNs
penetration into neurons [7]: penetrated cortical neurons

From PMC7898037, “Improving mitochondria and ER stability helps eliminate upper motor neuron degeneration that occurs due to mSOD1 toxicity and TDP‐43 pathology” (Clinical and Translational Medicine, 2021)
